Values quoted from earlier work, collected in patent US6670343B1, “Drugs for periodontal disease” (Toray Industries, Inc., priority 1999, dated 2003).

Settings: reported in J. Periodontology 63, 825-830 (1992)

For `NCCCC(O)(P(=O)(O)O)P(=O)(O)O` [4-amino-1-hydroxybutylidene-1,1-bisphosphonic acid], the “effect on alveolar bone resorption” value is given as “effectively suppresses alveolar bone resorption” and the “effect on dental pocket formation and gingival inflammation” value is given as “not effective”.
